The results in this text go back to EP4778933A1 (Chengdu Hyperway Pharmaceuticals Co., Ltd., priority 2023, dated 2025).

Structures are written as SMILES.

The test system of one test is KRAS G12D-mediated ERK phosphorylation. The test can be described thus: Inhibition of KRAS G12D-mediated ERK phosphorylation in AGS cells (in-cell pERK/GAPDH immunofluorescence). It counts as cell-based. Conditions: AGS cells, 3 h incubation. Here is the method:
Day 1: AGS cells, SW480 cells, NCI H358 cells, HCT116 cells, and KP2 cells were seeded into 384-well cell culture plates and cultured overnight in a 37°C, 5% CO2 incubator.
Day 2: The compounds were added to the plates using Echo550 and incubated for 3 h in a 37°C, 5% CO2 incubator. Then, cells fixed with paraformaldehyde, permeated with methanol and blocked with a blocking solution were added. Finally, a mixed solution of primary antibodies (rabbit anti pERK, mouse anti GAPDH) was added, and the mixture was incubated overnight at 4°C.
Day 3: The mixed solution of primary antibodies was discarded, and a mixed solution of secondary antibodies (goat anti rabbit 800 CW, goat anti mouse 680 RD) was added. The resulting mixture was incubated at room temperature in the dark. Finally, the cell culture plate was washed with PBST, and then inverted for 1 minute of centrifugation. The fluorescence signal values were read with Odyssey CLx.
ERK phosphorylation was calculated according to the following formula: [formula] • Negative control: DMSO • Positive control: 10 µM Reference • IC50 value was fitted and calculated by XLFit 5.0 using the parametric formula. • Y = Bottom+(Top-Bottom)/(1+10^((LogIC50-X)*HillSlope)) • X: log value of compound concentration. • Y: average value of relative expression of p-ERK between replicate wells.
As a reminder, the IC50 is the concentration that inhibits the measured activity by half. Compound `CC1(O)COCCN(c2nc(OCC34CCCN3C(c3cc(F)c(F)c(F)c3)CC4)nc3c(F)c(-c4cccc5sc(N)c(C#N)c45)c(Br)cc23)C1` (single isomer, unassigned) [Example 27, 2-amino-4-[6-bromo-8-fluoro-4-(6-hydroxy-6-methyl-1,4-oxazepan-4-yl)-2-({[3-(3,4,5-trifluoropheny 1)-2,3,5,6,7,7a-hexahydro-1H-pyrrolizin-7a-yl]methyl}oxy)quinazolin-7-yl]benzo[b]thiophene-3-carb onitrile] gave an IC50 of 355 nM.
Turning to `CC1(O)COCCN(c2nc(OCC34CCCN3C(c3cc(F)c(F)c(F)c3)CC4)nc3c(F)c(-c4cccc5sc(N)c(C#N)c45)c(Br)cc23)C1` (single isomer, unassigned) [Example 25, 2-amino-4-[6-bromo-8-fluoro-4-(6-hydroxy-6-methyl-1,4-oxazepan-4-yl)-2-({[3-(3,4,5-trifluoropheny 1)-2,3,5,6,7,7a-hexahydro-1H-pyrrolizin-7a-yl]methyl}oxy)quinazolin-7-yl]benzo[b]thiophene-3-carb onitrile], the IC50 was above 1000 nM.

Staying with this test, now noted: AGS cells, 3 h incubation; read-out: Inhibitory activity on ERK phosphorylation (IC50) AGS-G12D.
For the compound `CC1(O)COCCN(c2nc(OCC34CCCN3C(c3cc(F)c(F)c(F)c3)CC4)nc3c(F)c(-c4cccc5sc(N)c(C#N)c45)c(Cl)cc23)C1` (single isomer, unassigned) [Example 19, 2-amino-4-[6-chloro-8-fluoro-4-(6-hydroxy-6-methyl-1,4-oxazepan-4-yl)-2-({[3-(3,4,5-trifluorophenyl)-2,3,5,6,7,7a-hexahydro-1H-pyrrolizin-7a-yl]methyl}oxy)quinazolin-7-yl]benzo[b]thiophene-3-carbonitrile], the IC50 is above 1000 nM.
In the case of `CC1(O)COCCN(c2nc(OCC34CCCN3C(c3cc(F)c(F)c(F)c3)CC4)nc3c(F)c(-c4cccc5sc(N)c(C#N)c45)c(I)cc23)C1` (single isomer, unassigned) [Example 29, 2-amino-4-[6-iodo-8-fluoro-4-(6-hydroxy-6-methyl-1,4-oxazepan-4-yl)-2-({[3-(3,4,5-trifluorophenyl)-2,3,5,6,7,7a-hexahydro-1H-pyrrolizin-7a-yl]methyl}oxy)quinazolin-7-yl]benzo[b]thiophene-3-carbonitrile], the IC50 amounted to 33 nM.
The same measure, in the same setting: for `CC1(O)COCCN(c2nc(OCC34CCCN3C(c3cc(F)c(F)c(F)c3)CC4)nc3c(F)c(-c4cccc5sc(N)c(C#N)c45)c(I)cc23)C1` (single isomer, unassigned) [Example 30, 2-amino-4-[6-iodo-8-fluoro-4-(6-hydroxy-6-methyl-1,4-oxazepan-4-yl)-2-({[3-(3,4,5-trifluorophenyl)-2,3,5,6,7,7a-hexahydro-1H-pyrrolizin-7a-yl]methyl}oxy)quinazolin-7-yl]benzo[b]thiophene-3-carbonitrile] the value was 94 nM; for `CC1(O)COCCN(c2nc(OCC34CCCN3C(c3cc(F)c(F)c(F)c3)CC4)nc3c(F)c(-c4cccc5sc(N)c(C#N)c45)c(Cl)cc23)C1` (single isomer, unassigned) [Example 22, 2-amino-4-[6-chloro-8-fluoro-4-(6-hydroxy-6-methyl-1,4-oxazepan-4-yl)-2-({[3-(3,4,5-trifluorophenyl)-2,3,5,6,7,7a-hexahydro-1H-pyrrolizin-7a-yl]methyl}oxy)quinazolin-7-yl]benzo[b]thiophene-3-carbonitrile], 43 nM.
In the case of `CC1(O)COCCN(c2nc(OCC34CCCN3C(c3cc(F)c(F)c(F)c3)CC4)nc3c(F)c(-c4cccc5sc(N)c(C#N)c45)c(Cl)cc23)C1` (single isomer, unassigned) [Example 20, 2-amino-4-[6-chloro-8-fluoro-4-(6-hydroxy-6-methyl-1,4-oxazepan-4-yl)-2-({[3-(3,4,5-trifluorophenyl)-2,3,5,6,7,7a-hexahydro-1H-pyrrolizin-7a-yl]methyl}oxy)quinazolin-7-yl]benzo[b]thiophene-3-carbonitrile], the IC50 is above 1000 nM.

The test is the same for the next values; noted with them: Homo sapiens, AGS, 3 h, AGS cells, 3 h incubation; read-out: Inhibitory activity on ERK phosphorylation (IC50) AGS-G12D.
For the compound `CC1=NOC2(CCCN(c3nc(OCC45CCCN4C(c4cc(F)c(F)c(F)c4)CC5)nc4c(F)c(-c5ccc(F)c6sc(N)c(C#N)c56)c(Cl)cc34)CC2)C1` (racemic) [Example 3, 2-amino-4-[6-chloro-8-fluoro-4-(3-methyl-2,8-diaza-1-oxaspiro[4.6]undec-2-en-8-yl)-2-({[3-(3,4,5-trifluorophenyl)-2,3,5,6,7,7a-hexahydro-1H-pyrrolizin-7a-yl]methyl}oxy)quinazolin-7-yl]-7-fl uorobenzo[b]thiophene-3-carbonitrile], the IC50 was above 1000 nM.
On the same count and under the same terms, with `N#Cc1c(N)sc2cccc(-c3c(Cl)cc4c(N5CCNOCC5)nc(OCC56CCCN5C(c5cc(F)c(F)c(F)c5)CC6)nc4c3F)c12` (single isomer, unassigned) [Example 34, 2-amino-4-[6-chloro-8-fluoro-4-(1,2,5-oxadiazepan-5-yl)-2-({[3-(3,4,5-trifluorophenyl)-2,3,5,6,7,7a-hexahydro-1H-pyrrolizin-7a-yl]methyl}oxy)quinazolin-7-yl]benzo[b]thiophene-3-carbonitrile] the figure was 67 nM; with `CN(C)C(=O)C1CN(c2nc(OCC34CCCN3C(c3cc(F)c(F)c(F)c3)CC4)nc3c(F)c(-c4ccc(F)c5sc(N)c(C#N)c45)c(Cl)cc23)CCCO1` (racemic) [Example 16, 4-[7-(2-amino-3-cyano-7-fluorobenzo[b]thiophen-4-yl)-6-chloro-8-fluoro-2-({[3-(3,4,5-trifluorophenyl)-2,3,5,6,7,7a-hexahydro-1H-pyrrolizin-7a-yl]methyl}oxy)quinazolin-4-yl]-N,N-dimethyl-1,4-oxazepan-2-carboxamide], 380 nM; with `N#Cc1c(N)sc2c(F)ccc(-c3c(Cl)cc4c(N5CCCC(O)(C(F)(F)F)CC5)nc(OCC56CCCC5C(c5cc(F)c(F)c(F)c5)CC6)nc4c3F)c12` (racemic) [Example 5, 2-amino-4-{6-chloro-8-fluoro-4-[4-hydroxy-4-(trifluoromethyl)azepan-1-yl]-2-({[1-(3,4,5-trifluorophenyl)octahydrocyclopenta[1,2-a][5]annulen-3a-yl]methyl}oxy)quinazolin-7-yl}-7-fluorobenzo[b]thiop hene-3-carbonitrile], 313 nM.
On the same count and under the same terms, for `COC1CCN(c2nc(OCC34CCCN3C(c3cc(F)c(F)c(F)c3)CC4)nc3c(F)c(-c4ccc(F)c5sc(N)c(C#N)c45)c(N)cc23)C1` (racemic) [Example 15, 2-amino-4-[6-amino-8-fluoro-4-(3-methoxytetrahydro-1H-pyrrol-1-yl)-2-({[3-(3,4,5-trifluor ophenyl)-2,3,5,6,7,7a-hexahydro-1H-pyrrolizin-7a-yl]methyl}oxy)quinazolin-7-yl]-7-fluorobenzo[b]t hiophene-3-carbonitrile] the value was above 1000 nM; for `CC1(O)CCCN(c2nc(OCC34CCCN3C(c3cc(F)c(F)c(F)c3)CC4)nc3c(F)c(-c4ccc(F)c5sc(N)c(C#N)c45)c(Cl)cc23)CC1` (racemic) [Example 6, 2-amino-4-[6-chloro-8-fluoro-4-(4-hydroxy-4-methylazepan-1-yl)-2-({[3-(3,4,5-trifluorophenyl)-2,3,5,6,7,7a-hexahydro-1H-pyrrolizin-7a-yl]methyl}oxy)quinazolin-7-yl]-7-fluorobenzo[b]thioph ene-3-carbonitrile], 787 nM.

The same test, now with this note: Homo sapiens, AGS, 3 h, read-out: Inhibitory activity on ERK phosphorylation (IC50) AGS-G12D, AGS cells, 3 h incubation.
`N#Cc1c(N)sc2c(F)ccc(-c3c(Cl)cc4c(N5CC6COCC6C5)nc(OCC56CCCN5C(c5cc(F)c(F)c(F)c5)CC6)nc4c3F)c12` (racemic) [Example 8, 4-[4-(3,3a,4,5,6,6a-hexahydro-1H-furano[4,3-c]pyrrolo-5-yl)-6-chloro-8-fluoro-2-({[3-(3,4,5-trifluorophenyl)-2,3,5,6,7,7a-hexahydro-1H-pyrrolizin-7a-yl]methyl}oxy)quinazolin-7-yl]-2-amino-7-fluorobenzo[b]thiophene-3-carbonitrile]: the IC50 was above 1000 nM.
On to `CC1(O)COCCN(c2nc(OCC34CCCN3C(c3cc(F)c(F)c(F)c3)CC4)nc3c(F)c(-c4cncc5sc(N)c(C#N)c45)c(Cl)cc23)C1` (single isomer, unassigned) [Example 37, 2-amino-4-[6-chloro-8-fluoro-4-(6-hydroxy-6-methyl-1,4-oxazepan-4-yl)-2-({[1-(3,4,5-trifluoropheny 1)octahydrocyclopenta[1,2-a][5]annulen-3a-yl]methyl}oxy)quinazolin-7-yl]thieno[2,3-c]pyridine-3-ca rbonitrile], for which the IC50 worked out at 193 nM.

The test is the same for the next values; noted with them: Homo sapiens; AGS cells, 3 h incubation; read-out: Inhibitory activity on ERK phosphorylation (IC50) AGS-G12D.
In the case of `N#Cc1c(N)sc2c(F)ccc(-c3c(Cl)cc4c(N5CC6C[C@@H](C5)c5cccc(=O)n5C6)nc(OCC56CCCN5C(c5cc(F)c(F)c(F)c5)CC6)nc4c3F)c12` (mixture of isomers) [Example 7, 2-amino-4-{6-chloro-8-fluoro-4-[(1S)-6-oxo-7,11-diazatricyclo[7.3.1.02,7]trideca-2(3),4-dien-11-yl]-2-({[3-(3,4,5-trifluorophenyl)-2,3,5,6,7,7a-hexahydro-1H-pyrrolizin-7a-yl]methyl}oxy)quinazolin-7-yl}-7-fluorobenzo[b]thiophene-3-carbonitrile], the IC50 amounted to 738 nM.
